Assay results taken from patent publication US9527838B2, “2-pyridinecarboxamide derivatives, compositions containing such compounds, and methods of treatment” (priority 2012, dated 2016).
Like-named read-outs stand apart in the source and are kept apart here.

Molecular target: Recombinant human liver glucokinase (Homo sapiens (Human), UniProt P35557)
Test: Glucokinase activation assay (G6PDH-coupled, Thio-NADH absorbance at 405 nm)
Type: biochemical
Settings: for EC50: 30° C.
Excerpt: The glucokinase activity can, for instance, be determined without directly measuring glucose-6-phosphate by measuring the amount of Thio-NADH generated during the production of phosphogluconolactone from glucose-6-phosphate by a reporter enzyme glucose-6-phosphate dehydrogenase.
To test the exemplified compounds, the following assay was employed. Recombinant human liver glucokinase was expressed as a FLAG fusion protein in E. coli, and purified on […] M2 AFFINITY GEL (Sigma). The assay was carried out at 30° C. in a 96-well plate. In the plate was distributed 69 μl each of assay buffer (25 mM Hepes Buffer: pH=7.2, 2 mM MgCl2, 1 mM ATP, 0.5 mM TNAD, 1 mM dithiothreitol), to which was added 1 μl of a DMSO solution of the compound or DMSO as control. Then, 20 μl of pre-ice-cooled enzyme mixture (FLAG-GK, 20 U/ml G6PDH) was distributed thereto, to which was added 10 μl of 25 mM glucose as substrate to initiate the reaction (final glucose concentration=2.5 mM). After starting the reaction, the absorbance at 405 nm was measured every 30 seconds for 10 minutes to evaluate the compound based on the initial increase for 5 minutes. FLAG-GK was added so that the increase of absorbance after 5 minutes fell between 0.05 to 0.1 in the presence of 1% DMSO.
The OD values of the respective compounds were measured in the respective concentrations, wherein the OD value of DMSO as control is regarded as 100%.

Chain of Recombinant human liver glucokinase (P35557 other isoform, or with tags, fused parts or gaps): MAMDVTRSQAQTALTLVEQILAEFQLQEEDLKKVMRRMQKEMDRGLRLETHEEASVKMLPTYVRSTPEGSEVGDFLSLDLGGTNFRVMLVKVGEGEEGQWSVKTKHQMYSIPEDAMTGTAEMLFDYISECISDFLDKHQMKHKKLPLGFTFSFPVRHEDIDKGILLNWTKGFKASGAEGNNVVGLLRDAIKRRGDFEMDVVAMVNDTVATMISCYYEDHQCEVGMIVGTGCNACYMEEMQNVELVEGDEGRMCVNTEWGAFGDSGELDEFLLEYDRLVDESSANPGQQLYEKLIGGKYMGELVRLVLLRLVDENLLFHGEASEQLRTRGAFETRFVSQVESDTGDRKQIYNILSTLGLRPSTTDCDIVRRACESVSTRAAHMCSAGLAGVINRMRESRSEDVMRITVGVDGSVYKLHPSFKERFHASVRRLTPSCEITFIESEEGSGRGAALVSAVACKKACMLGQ

Row | SMILES | Emax [%] | EC50 (2.5 mM Glu) [nM] | Emax (2.5 mM Glu, OD value of DMSO as control regarded as 100%, read-out: Emax) [%]
1 | COC(=O)CCc1cnc(NC(=O)c2nc(Sc3ccccn3)ccc2Sc2ccc(OC)cc2)s1 [Example 14, Methyl 3-{2-[({3-[(4-methoxyphenyl)sulfanyl]-6-(pyridin-2-ylsulfanyl)pyridin-2-yl}carbonyl)amino]-1,3-thiazol-5-yl}propanoate] | 486 | 290 | 
2 | COC(=O)CCc1cnc(NC(=O)c2nc(Sc3ccccn3)ccc2Sc2ccc(F)cc2)s1 [Example 39, Methyl 3-{2-[({3-[(4-fluorophenyl)sulfanyl]-6-(pyridin-2-ylsulfanyl)pyridin-2-yl}carbonyl)amino]-1,3-thiazol-5-yl}propanoate] | 468 | 726 | 
3 | O=C(O)CSc1cnc(NC(=O)c2nc(Sc3ccccn3)ccc2Sc2ccc(F)cc2)s1 [Example 36, ({2-[({3-[(4-Fluorophenyl)sulfanyl]-6-(pyridin-2-ylsulfanyl)pyridin-2-yl}carbonyl)amino]-1,3-thiazol-5-yl}sulfanyl)acetic acid] | 514 | 34 | 
4 | CCOC(=O)Cc1nc(NC(=O)c2nc(Sc3ccccn3)ccc2Sc2ccc(OC)cc2)sc1Cl [Example 12] | 427 | 47.6 | 
5 | O=C(O)Cc1nc(NC(=O)c2nc(Sc3ccccn3)ccc2Sc2ccc(F)cc2)sc1Cl [Example 32, {5-Chloro-2-[({3-[(4-fluorophenyl)sulfanyl]-6-(pyridin-2-ylsulfanyl)pyridin-2-yl}carbonyl)amino]-1,3-thiazol-4-yl}acetic acid] | 643 | 16.1 | 
6 | CCOC(=O)CSc1cnc(NC(=O)c2nc(Sc3ccccn3)ccc2Sc2ccc(OC)cc2)s1 [Example 10, Ethyl ({2-[({3-[(4-methoxyphenyl)sulfanyl]-6-(pyridin-2-ylsulfanyl)pyridin-2-yl}carbonyl)amino]-1,3-thiazol-5-yl}sulfanyl)acetate] |  | 35.2 | 498
7 | CCOC(=O)Cc1nc(NC(=O)c2nc(Sc3nncn3C)ccc2Sc2ccc(C(F)(F)F)cc2)sc1Cl [Example 41, Ethyl (5-chloro-2-{[(6-[(4-methyl-4H-1,2,4-triazol-3-yl)sulfanyl]-3-{[4-(trifluoromethyl)phenyl]sulfanyl}pyridin-2-yl)carbonyl]amino}-1,3-thiazol-4-yl)acetate] | 296 | 18.9 | 
8 | COc1ccc(Sc2ccc(Sc3ccccn3)nc2C(=O)Nc2ncc(CCC(=O)O)s2)cc1 [Example 15, 3-{2-[({3-[(4-Methoxyphenyl)sulfanyl]-6-(pyridin-2-ylsulfanyl)pyridin-2-yl}carbonyl)amino]-1,3-thiazol-5-yl}propanoic acid] | 645 | 140 | 
9 | O=C(O)CCc1cnc(NC(=O)c2nc(Sc3ccccn3)ccc2Sc2ccc(F)cc2)s1 [Example 40, 3-{2[({3-[(4-Fluorophenyl)sulfanyl]-6-(pyridin-2-ylsulfanyl)pyridin-2-yl}carbonyl)amino]-1,3-thiazol-5-yl}propanoic acid] | 658 | 428 | 
10 | Cn1cnnc1Sc1ccc(Sc2ccc(Cl)c(Cl)c2)c(C(=O)Nc2ncc(SCC(=O)O)s2)n1 [Example 52, ({2-[({3-[(3,4-Dichlorophenyl)sulfanyl]-6-[(4-methyl-4H-1,2,4-triazol-3-yl)sulfanyl]pyridin-2-yl}carbonyl)amino]-1,3-thiazol-5-yl}sulfanyl)acetic acid] | 431 | 16.6 | 
11 | Cn1cnnc1Sc1ccc(Sc2ccc(F)cc2)c(C(=O)Nc2ncc(SCC(=O)O)s2)n1 [Example 19, ({2-[({3-[(4-Fluorophenyl)sulfanyl]-6-[(4-methyl-4H-1,2,4-triazol-3-yl)sulfanyl]pyridin-2-yl}carbonyl)amino]-1,3-thiazol-5-yl}sulfanyl)acetic acid] | 426 | 23.1 | 
12 | O=C(O)Cc1nc(NC(=O)c2nc(Sc3ccc(F)cc3)ccc2Sc2ccc(F)cc2)sc1Cl [Example 30, {2-[({3,6-Bis[(4-fluorophenyl)sulfanyl]pyridin-2-yl}carbonyl)amino]-5-chloro-1,3-thiazol-4-yl}acetic acid] | 393 | 16.3 | 
13 | O=C(O)Cc1csc(NC(=O)c2nc(Sc3ccccn3)ccc2Sc2ccc(F)cc2)n1 [Example 34, {2-[({3-[(4-Fluorophenyl)sulfanyl]-6-(pyridin-2-ylsulfanyl)pyridin-2-yl}carbonyl)amino]-1,3-thiazol-4-yl}acetic acid] | 762 | 413 | 
14 | COc1ccc(Sc2ccc(Sc3nncn3C)nc2C(=O)Nc2ncc(SC(C)(C)C(=O)O)s2)cc1 [Example 4, 2-({2-[({3-[(4-methoxyphenyl)sulfanyl]-6-[(4-methyl-4H-1,2,4-triazol-3-yl)sulfanyl]pyridin-2-yl}carbonyl)amino]-1,3-thiazol-5-yl}sulfanyl)-2-methylpropanoic acid] | 417 | 65.1 | 
15 | CCOC(=O)Cc1nc(NC(=O)c2nc(Sc3nncn3C)ccc2Sc2ccc(F)cc2)sc1Cl [Example 24, Ethyl {5-chloro-2-[({3-[(4-fluorophenyl)sulfanyl]-6-[(4-methyl-4H-1,2,4-triazol-3-yl)sulfanyl]pyridin-2-yl}carbonyl)amino]-1,3-thiazol-4-yl}acetate] | 378 | 8 | 
16 | CC(C)(CSc1cnc(NC(=O)c2nc(Sc3ccccn3)ccc2Sc2ccc(F)cc2)s1)C(=O)O [Example 38, 3-({2-[({3-[(4-Fluorophenyl)sulfanyl]-6-(pyridin-2-ylsulfanyl)pyridin-2-yl}carbonyl)amino]-1,3-thiazol-5-yl}sulfanyl)-2,2-dimethylpropanoic acid] | 550 | 32 | 
17 | Cn1cnnc1Sc1ccc(Sc2ccc(C(F)(F)F)cc2)c(C(=O)Nc2ncc(SCC(=O)O)s2)n1 [Example 44, [(2-{[(6-[(4-Methyl-4H-1,2,4-triazol-3-yl)sulfanyl]-3-{[4-(trifluoromethyl)phenyl]sulfanyl}pyridin-2-yl)carbonyl]amino}-1,3-thiazol-5-yl)sulfanyl]acetic acid] | 349 | 33.7 | 
18 | COc1ccc(Sc2ccc(Sc3ccccn3)nc2C(=O)Nc2ncc(SCC(=O)O)s2)cc1 [Example 11, ({2-[({3-[(4-Methoxyphenyl)sulfanyl]-6-(pyridin-2-ylsulfanyl)pyridin-2-yl}carbonyl)amino]-1,3-thiazol-5-yl}sulfanyl)acetic acid] | 509 | 10.9 | 
19 | CCOC(=O)C(C)(C)CSc1cnc(NC(=O)c2nc(Sc3nncn3C)ccc2Sc2ccc(OC)cc2)s1 [Example 5, Ethyl 3-({2-[({3-[(4-methoxyphenyl)sulfanyl]-6-[(4-methyl-4H-1,2,4-triazol-3-yl)sulfanyl]pyridin-2-yl}carbonyl)amino]-1,3-thiazol-5-yl}sulfanyl)-2,2-dimethylpropanoate] | 490 | 14.3 | 
20 | Cn1cnnc1Sc1ccc(Sc2ccc(Cl)c(Cl)c2)c(C(=O)Nc2nc(CC(=O)O)c(Cl)s2)n1 [Example 54, {5-Chloro-2-[({3-[(3,4-dichlorophenyl)sulfanyl]-6-[(4-methyl-4H-1,2,4-triazol-3-yl)sulfanyl]pyridin-2-yl}carbonyl)amino]-1,3-thiazol-4-yl}acetic acid] | 523 | 23.3 | 
21 | COc1ccc(Sc2ccc(Sc3nncn3C)nc2C(=O)Nc2ncc(CCC(=O)O)s2)cc1 [Example 8, 3-{2-[({3-[(4-Methoxyphenyl)sulfanyl]-6-[(4-methyl-4H-1,2,4-triazol-3-yl)sulfanyl]pyridin-2-yl}carbonyl)amino]-1,3-thiazol-5-yl}propanoic acid] | 626 | 58.7 | 
22 | CCOC(=O)Cc1nc(NC(=O)c2nc(Sc3nncn3C)ccc2Sc2ccc(Cl)c(Cl)c2)sc1Cl [Example 53, Ethyl {5-chloro-2-[({3-[(3,4-dichlorophenyl)sulfanyl]-6-[(4-methyl-4H-1,2,4-triazol-3-yl)sulfanyl]pyridin-2-yl}carbonyl)amino]-1,3-thiazol-4-yl}acetate] | 426 | 7.6 | 
23 | O=C(O)CSc1cnc(NC(=O)c2nc(Sc3ccc(F)cc3)ccc2Sc2ccc(F)cc2)s1 [Example 28, ({2-[({3,6-Bis[(4-fluorophenyl)sulfanyl]pyridin-2-yl}carbonyl)amino]-1,3-thiazol-5-yl}sulfanyl)acetic acid] | 343 | 172 | 
24 | COc1ccc(Sc2ccc(Sc3nncn3C)nc2C(=O)Nc2ncc(SCC(C)(C)C(=O)O)s2)cc1 [Example 6, 3-({2-[({3-[(4-methoxyphenyl)sulfanyl]-6-[(4-methyl-4H-1,2,4-triazol-3-yl)sulfanyl]pyridin-2-yl}carbonyl)amino]-1,3-thiazol-5-yl}sulfanyl)-2,2-dimethylpropanoic acid] | 425 | 16 | 
25 | CCOC(=O)Cc1csc(NC(=O)c2nc(Sc3ccccn3)ccc2Sc2ccc(F)cc2)n1 [Example 33, Ethyl {2-[({3-[(4-fluorophenyl)sulfanyl]-6-(pyridin-2-ylsulfanyl)pyridin-2-yl}carbonyl)amino]-1,3-thiazol-4-yl}acetate] | 456 | 4660 | 
26 | CCOC(=O)CSc1cnc(NC(=O)c2nc(Sc3ccc(F)cc3)ccc2Sc2ccc(F)cc2)s1 [Example 27] | 182 |  | 
